# Results published in PMC9824012, “Exploring Antimicrobial Peptides Efficacy against Fire Blight (Erwinia amylovora)” (Plants, 2022).
# Tested on: Erwinia amylovora
# Test: Transmission electron microscopy of treated cells
# Format: cell-based, Erwinia amylovora strain PGL Z1
# Settings: antibiotic control 0.5 mg/mL
# Protocol: Aliquots of E. amylovora suspensions were incubated with the KL29 for 15 min at room temperature to investigate peptide antibacterial modes of action (lytic and non-lytic). E. amylovora suspensions treated with 0.5 mg/mL of streptomycin (bacteriostatic antibiotic), and ampicillin (bactericidal antibiotic) were used as controls. Preparations were observed under TEM (FEI MORGAGNI 282D, Hillsboro, OR, USA) by the dip method: the carbon coated copper/rhodium grids were incubated with treated and untreated bacterial suspension for 2 min, and then rinsed with 200 μL of distilled water. Negative staining was obtained by floating the grids on 200 μL of 0.5 % w/v UA-zero EM STAIN (Agar-Scientific Ltd., Stansted, UK) solution and observing them under the EM using an accelerating voltage of 80 kV.
row,Compound,TEM morphology of treated E. amylovora cells (in words)
1,[H]/N=C(/N)N[C@H]1[C@H](O)[C@@H](O)[C@H](O[C@@H]2O[C@@H](C)[C@](O)(C=O)[C@H]2O[C@@H]2O[C@@H](CO)[C@H](O)[C@@H](O)[C@@H]2NC)[C@@H](N/C(N)=N\[H])[C@@H]1O [streptomycin],reduced cell lysis and morphological alterations similar to those treated with KL29 at 250 µM
2,CC1(C)S[C@@H]2[C@H](NC(=O)[C@H](N)c3ccccc3)C(=O)N2[C@H]1C(=O)O [ampicillin],damaged cell walls and the decomposition of inner structures
